Reference: publication PMC9750872, “Ras-mutant cancers are sensitive to small molecule inhibition of V-type ATPases in mice” (Nature biotechnology, 2022)
Entries after “also recorded” stand apart in the source; their conditions may differ.

Assays:
[1] = target: T1, mammalian V-ATPase purified from pig kidneys (Sus scrofa, UniProt Q9TVC1); assay: Biochemical V-ATPase (ATP hydrolysis) assay; conditions: concentrations as low as 1 μM
T1 construct: the entire V-ATPase complex (800 kDa) was purified as described previously from porcine kidneys; from tissue; host or cells: porcine kidney
T1 sequence (Q9TVC1 whole entry): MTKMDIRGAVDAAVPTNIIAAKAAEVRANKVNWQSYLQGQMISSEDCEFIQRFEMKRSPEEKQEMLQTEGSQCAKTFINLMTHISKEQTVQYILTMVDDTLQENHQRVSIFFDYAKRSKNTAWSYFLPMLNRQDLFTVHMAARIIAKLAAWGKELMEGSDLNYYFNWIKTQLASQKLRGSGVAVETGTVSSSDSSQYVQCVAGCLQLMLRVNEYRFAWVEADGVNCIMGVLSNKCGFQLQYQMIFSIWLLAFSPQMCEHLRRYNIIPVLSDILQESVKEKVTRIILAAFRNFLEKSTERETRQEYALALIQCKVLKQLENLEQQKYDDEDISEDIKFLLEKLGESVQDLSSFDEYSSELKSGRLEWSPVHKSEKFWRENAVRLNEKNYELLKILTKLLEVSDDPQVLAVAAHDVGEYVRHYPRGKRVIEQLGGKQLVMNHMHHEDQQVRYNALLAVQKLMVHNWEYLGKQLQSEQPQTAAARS
T1 sequence (Q29048 whole entry partner): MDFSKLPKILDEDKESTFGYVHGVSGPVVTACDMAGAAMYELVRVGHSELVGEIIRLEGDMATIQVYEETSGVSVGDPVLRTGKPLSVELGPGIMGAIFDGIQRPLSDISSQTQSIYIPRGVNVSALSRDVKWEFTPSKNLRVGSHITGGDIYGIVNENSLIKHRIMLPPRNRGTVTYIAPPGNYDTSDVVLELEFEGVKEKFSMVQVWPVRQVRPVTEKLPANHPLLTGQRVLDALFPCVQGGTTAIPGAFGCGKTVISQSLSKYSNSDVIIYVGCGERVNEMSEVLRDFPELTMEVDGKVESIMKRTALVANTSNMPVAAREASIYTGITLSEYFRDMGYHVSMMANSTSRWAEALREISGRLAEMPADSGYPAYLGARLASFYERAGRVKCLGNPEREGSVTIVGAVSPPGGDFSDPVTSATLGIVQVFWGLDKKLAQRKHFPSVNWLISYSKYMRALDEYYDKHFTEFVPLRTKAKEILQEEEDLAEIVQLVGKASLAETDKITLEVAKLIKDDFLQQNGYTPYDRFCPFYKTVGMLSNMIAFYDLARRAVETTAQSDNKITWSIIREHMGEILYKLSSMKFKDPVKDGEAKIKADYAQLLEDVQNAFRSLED
Description: V-ATPase was purified as described previously from yeast[82] using the detergent dodecylmaltoside and porcine kidney[83] using the detergent glycol-diosgenin. ATPase assays with purified V-ATPase were performed as described previously. 249C (mammalian: 0.1, 1, 10, 100 μM and yeast: 5, 10 and 100 μM) or BafA1 (1 μM) were added to the reaction and compared with a negative control to which only DMSO was added. Enzyme-coupled ATPase biochemical activity assays were performed in a 96-well plate as described previously.

[2] = target: T2, Yeast V-ATPase (Saccharomyces cerevisiae, UniProt P25515+P41807); assay: Biochemical V-ATPase (ATP hydrolysis) assay
T2 construct: V-ATPase was purified as described previously from yeast[82] using the detergent dodecylmaltoside; endogenous in cells; host or cells: yeast
T2 sequence (P25515 whole entry): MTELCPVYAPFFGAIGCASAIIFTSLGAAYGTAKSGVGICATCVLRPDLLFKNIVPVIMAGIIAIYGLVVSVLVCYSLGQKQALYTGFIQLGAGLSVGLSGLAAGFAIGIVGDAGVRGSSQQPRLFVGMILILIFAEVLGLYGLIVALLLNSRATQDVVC
T2 sequence (P41807 2-478): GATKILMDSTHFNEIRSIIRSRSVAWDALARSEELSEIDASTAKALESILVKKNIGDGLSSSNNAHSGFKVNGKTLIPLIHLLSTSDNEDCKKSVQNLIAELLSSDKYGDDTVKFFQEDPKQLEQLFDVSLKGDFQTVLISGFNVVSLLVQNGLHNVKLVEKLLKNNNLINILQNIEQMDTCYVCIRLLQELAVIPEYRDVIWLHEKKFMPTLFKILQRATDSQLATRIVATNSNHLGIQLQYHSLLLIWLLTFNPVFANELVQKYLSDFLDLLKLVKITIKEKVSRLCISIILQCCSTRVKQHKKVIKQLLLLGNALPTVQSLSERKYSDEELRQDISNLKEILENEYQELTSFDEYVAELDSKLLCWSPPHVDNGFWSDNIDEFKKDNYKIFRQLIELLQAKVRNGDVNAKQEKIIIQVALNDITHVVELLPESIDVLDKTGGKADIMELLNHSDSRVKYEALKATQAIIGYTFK
Description: V-ATPase was purified as described previously from yeast[82] using the detergent dodecylmaltoside and porcine kidney[83] using the detergent glycol-diosgenin. ATPase assays with purified V-ATPase were performed as described previously. 249C (mammalian: 0.1, 1, 10, 100 μM and yeast: 5, 10 and 100 μM) or BafA1 (1 μM) were added to the reaction and compared with a negative control to which only DMSO was added. Enzyme-coupled ATPase biochemical activity assays were performed in a 96-well plate as described previously. […]
appears to cause accumulation of high molecular weight entities. Representative of 3 independent experiments. […]
observed. Data shown are mean ± SD ( n = 3) Two-tailed student’s t-test (C) ATP-dependent fluorescence quenching in yeast (me an ± SD; n = 3 ) Two-t ailed student’s t-test (D) SDS PAGE over th e cou rse of recombinant human ATP6V1H protein purification. 1. Mark ers; 2. Total l ysate (GST-fusion […]); 3. Soluble lysate; 4.
GSTrap flow-through; 5. GSTrap elute; 6. Post thrombin cleavage (target 54 kDa, GST 25 kDa); 7. Subtractive GSTrap flow -through; 8. Markers; 9. Final sample, 1 µg protein load. Repres entative of 2 independent ex periments. (E) Structure of biotin- 249C. […]
interfere with V-ATPas e binding. ( F) Experimental schematic of Bio-la yer inferometr y (B L I) .
(1 picture or pasted object on this page, not shown here)

[3] = system: V-ATPase-dependent proton transport in HEK293T cells; assay: Proton pumping assay, FITC-Dextran-loaded lysosomes; format: cell-based, human; conditions: 1 h treatment, listed as BafA1
Description: Figure 4. […] (A) Model of the reversible assembly of V-ATPase. Cytosolic V1 subunits are depicted in blue and membrane Vo subunits in purple. Upon V-ATPase assembly, ATP is hydrolyzed to ADP accompanied by proton (H^+) pumping and luminal acidification (decrease in pH) (Created with BioRender). […] The amount of subunit B2 present in the membrane fraction indicates the amount of assembled V-ATPase. A representative Western blot is presented. […] Cells were mechanically lysed, and a fraction containing FITC-Dextran-loaded lysosomes was isolated by sedimentation centrifugation. Fluorescence was measured over time to assess pH-dependent quenching following addition of 1 mM magnesium-ATP (predetermined). […] Representative of 5 individual experiments with n = 3 for each is presented (mean ± SD) (D) Mammalian V-ATPase activity measured in the absence and presence of 1 μM 249C and 1 μM BafA1. Data shown are mean ± SD; n = 3. […]
4 × 10^6 HEK 293T cells were plated in 10-cm plates. […] Sample fluorescence was excited at 490 nm, and emission fluorescence at 520 nm was measured continuously in BioTek plate reader (Synergy) using Gen5 software (version 3.05). After initial fluorescence stabilization, 1 mM ATP and 2 mM MgCl2 were added to initiate ATPase activity and proton pumping into the lysosomes, which causes quenching of FITC in the lysosomal lumen. […]

[4] = system: human primary cells; assay: BioMAP Safety and Toxicology screening profile; format: cell-based
Description: The BioMAP Toxicity Screening Profile was performed as described previously.

[5] = target: T3, hERG (Homo sapiens, UniProt Q12809); assay: hERG fluorescence polarization assay; conditions: human
T3 sequence (Q12809 whole entry): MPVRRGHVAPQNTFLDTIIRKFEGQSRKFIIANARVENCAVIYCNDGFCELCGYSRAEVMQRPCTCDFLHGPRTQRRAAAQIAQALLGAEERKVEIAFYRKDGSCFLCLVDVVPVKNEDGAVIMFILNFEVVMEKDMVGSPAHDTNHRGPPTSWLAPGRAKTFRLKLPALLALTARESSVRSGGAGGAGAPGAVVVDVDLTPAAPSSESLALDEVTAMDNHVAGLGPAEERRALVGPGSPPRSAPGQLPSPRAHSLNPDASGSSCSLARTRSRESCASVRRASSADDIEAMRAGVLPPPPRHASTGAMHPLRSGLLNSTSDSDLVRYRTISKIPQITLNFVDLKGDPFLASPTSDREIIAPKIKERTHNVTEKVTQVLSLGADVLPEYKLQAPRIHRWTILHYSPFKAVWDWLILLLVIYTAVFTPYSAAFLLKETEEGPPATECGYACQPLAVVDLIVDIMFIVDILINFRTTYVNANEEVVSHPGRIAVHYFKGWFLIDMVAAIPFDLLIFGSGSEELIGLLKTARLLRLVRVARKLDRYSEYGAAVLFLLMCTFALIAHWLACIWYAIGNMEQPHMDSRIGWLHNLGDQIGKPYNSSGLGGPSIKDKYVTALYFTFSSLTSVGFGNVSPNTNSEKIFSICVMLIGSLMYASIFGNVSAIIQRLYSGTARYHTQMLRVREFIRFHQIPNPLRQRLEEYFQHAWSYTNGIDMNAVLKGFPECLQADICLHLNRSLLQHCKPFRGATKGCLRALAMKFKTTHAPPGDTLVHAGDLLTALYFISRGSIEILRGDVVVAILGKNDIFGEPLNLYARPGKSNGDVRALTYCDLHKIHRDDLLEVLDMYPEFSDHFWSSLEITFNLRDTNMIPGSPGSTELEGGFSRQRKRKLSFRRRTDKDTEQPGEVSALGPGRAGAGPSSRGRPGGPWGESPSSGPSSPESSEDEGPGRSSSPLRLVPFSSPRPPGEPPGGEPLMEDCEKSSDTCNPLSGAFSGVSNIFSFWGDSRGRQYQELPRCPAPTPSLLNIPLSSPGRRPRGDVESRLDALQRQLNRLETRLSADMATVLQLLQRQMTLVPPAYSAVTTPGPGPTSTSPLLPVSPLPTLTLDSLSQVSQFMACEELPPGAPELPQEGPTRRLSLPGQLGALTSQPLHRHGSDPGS

[6] = target: human ether-à-go-go-related gene (hERG) (Homo sapiens, UniProt Q12809); assay: hERG fluorescence polarization assay; conditions: at 30 μM
Chain of human ether-à-go-go-related gene (hERG) (Q12809 whole entry): as above

[7] = target: T3, hERG; assay: in vitro

SMILES: CO/C1=C\C(C)=C\[C@@H](C)[C@@H](O)[C@@H](C)C/C(C)=C/C=C/[C@H](OC)[C@@H]([C@@H](C)[C@@H](O)[C@H](C)[C@@]2(O)C[C@@H](O)[C@H](C)[C@@H](C(C)C)O2)OC1=O [Bafilomycin A1, reference compound]
- ATP hydrolysis of intact mammalian V-ATPase [1]: blocked ATP hydrolysis
- Yeast V-ATPase activity [2]: modest inhibition
- V-ATPase-dependent proton transport (ATP-dependent fluorescence quenching) [3]: inhibited V-ATPase-dependent proton transport; also recorded: ATP-dependent fluorescence quenching was not observed
- toxicity categories / adverse events in BioMAP safety profiling ([4]; over 100 biomarker readouts): 2
- inhibition at 30 µM [5]: 35%

SMILES: CN(CCCCCCNc1ccnc2cc(Cl)ccc12)CCCCCCNc1ccnc2cc(Cl)ccc12 [DC661]
- Percent inhibition of hERG [6]: 100%

SMILES: CCN(CCO)CCCC(C)Nc1ccnc2cc(Cl)ccc12 (stereo not shown) [HCQ, hydroxychloroquine]
- BioMAP Screening Profile 3C:SRB ([4]; human, 1000 nM): 0
- BioMAP Screening Profile 4H:SRB ([4]; human, 1000 nM): 0
- BioMAP Screening Profile BE3C:SRB ([4]; human, 1000 nM): 0
- BioMAP Screening Profile BF4T:SRB ([4]; human, 1000 nM): 0
- BioMAP Screening Profile BT:PBMC Cytotoxicity ([4]; human, 1000 nM): 0
- BioMAP Screening Profile CASM3C:SRB ([4]; human, 1000 nM): 0
- BioMAP Screening Profile Cytotoxicity ([4]; human, 1000 nM): 0
- BioMAP Screening Profile HDF3CGF:SRB ([4]; human, 1000 nM): 0
- BioMAP Screening Profile KF3CT:SRB ([4]; human, 1000 nM): 0
- BioMAP Screening Profile LPS:SRB ([4]; human, 1000 nM): 0
- BioMAP Screening Profile MyoF:SRB ([4]; human, 1000 nM): 0
- BioMAP Screening Profile SAg:PBMC Cytotoxicity ([4]; human, 1000 nM): 0
- BioMAP Screening Profile SAg:SRB ([4]; human, 1000 nM): 0
- BioMAP Screening Profile lMphg:SRB ([4]; human, 1000 nM): 0
- BioMAP Screening Profile lMphg:SRB-Mphg ([4]; human, 1000 nM): 0
- inhibition at 30 µM [7]: ~60%
